# According to PubChem BioAssay AID2060493 (Molecular Pharmacology Branch, DTP, NCI, 2025):
# System: 616215-338-R-J1-PDC tumor spheroids, viability
# Assay: Anticancer human tumor 616215-338-R-J1-PDC patient-derived colon adenocarcinoma cell line growth inhibition [GQUAD]
# Conditions: spheroids with HUVEC and MSC; for IC50: curve of first compound; for viability, T/C: stronger effect = lower value
# Method in brief: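 Tumor cells were grown as complex spheroids with HUVEC endothelial cells and mesenchymal stem cells as stroma. G-quadruplex stabilizers were combined with targeted agents over half-log dilutions from near the clinical Cmax, or from 10 microM.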
# [1] = second compound 0.0316 µM, first compound 0.0316 µM
# [2] = second compound 0.0316 µM, first compound 0.1 µM
# [3] = second compound 0.0316 µM, first compound 0.316 µM
# [4] = second compound 0.0316 µM, first compound 1 µM
# [5] = second compound 0.0316 µM, first compound 3.16 µM
# [6] = second compound 0.0316 µM, first compound 10 µM
# [7] = second compound 0.1 µM, first compound 0.0316 µM
# [8] = second compound 0.1 µM, first compound 0.1 µM
# [9] = second compound 0.1 µM, first compound 0.316 µM
# [10] = second compound 0.1 µM, first compound 1 µM
# [11] = second compound 0.1 µM, first compound 3.16 µM
# [12] = second compound 0.1 µM, first compound 10 µM
# [13] = second compound 0.316 µM, first compound 0.0316 µM
# [14] = second compound 0.316 µM, first compound 0.1 µM
# [15] = second compound 0.316 µM, first compound 0.316 µM
# [16] = second compound 0.316 µM, first compound 1 µM
# [17] = second compound 0.316 µM, first compound 3.16 µM
# [18] = second compound 0.316 µM, first compound 10 µM
# [19] = second compound 1 µM, first compound 0.0316 µM
# [20] = second compound 1 µM, first compound 0.1 µM
# [21] = second compound 1 µM, first compound 0.316 µM
# [22] = second compound 1 µM, first compound 1 µM
# [23] = second compound 1 µM, first compound 3.16 µM
# [24] = second compound 1 µM, first compound 10 µM
# [25] = second compound 3.16 µM, first compound 0.0316 µM
# [26] = second compound 3.16 µM, first compound 0.1 µM
# [27] = second compound 3.16 µM, first compound 0.316 µM
# [28] = second compound 3.16 µM, first compound 1 µM
# [29] = second compound 3.16 µM, first compound 3.16 µM
# [30] = second compound 3.16 µM, first compound 10 µM
# [31] = second compound 10 µM, first compound 0.0316 µM
# [32] = second compound 10 µM, first compound 0.1 µM
# [33] = second compound 10 µM, first compound 0.316 µM
# [34] = second compound 10 µM, first compound 1 µM
# [35] = second compound 10 µM, first compound 3.16 µM
# [36] = second compound 10 µM, first compound 10 µM
# 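Also: spheroids exposed to agents for 7 days before readout.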
# 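For viability, T/C in this document: percent viability relative to DMSO vehicle control wells taken as 100%.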
compound,measurement,setting,value
C#Cc1c(F)ccc2cc(O)cc(-c3ncc4c(N5CC6CCC(C5)N6)nc(OCC56CCCN5CC(F)C6)nc4c3F)c12 (stereo not given) + Cc1[nH]c2ccc(F)cc2c1-c1nc2c3cccnc3c3ncccc3c2[nH]1,IC50,second compound 0.0316 µM,> 10000 nM
same,IC50,second compound 0.1 µM,> 10000 nM
same,IC50,second compound 0.316 µM,> 10000 nM
same,IC50,second compound 1 µM,> 10000 nM
same,IC50,second compound 3.16 µM,8110 nM
same,IC50,second compound 10 µM,6030 nM
same,"viability, T/C",[1],104%
same,"viability, T/C",[2],109%
same,"viability, T/C",[3],103%
same,"viability, T/C",[4],111%
same,"viability, T/C",[5],97.4%
same,"viability, T/C",[6],73.3%
same,"viability, T/C",[7],107%
same,"viability, T/C",[8],111%
same,"viability, T/C",[9],126%
same,"viability, T/C",[10],113%
same,"viability, T/C",[11],96%
same,"viability, T/C",[12],78.4%
same,"viability, T/C",[13],113%
same,"viability, T/C",[14],96.9%
same,"viability, T/C",[15],124%
same,"viability, T/C",[16],116%
same,"viability, T/C",[17],106%
same,"viability, T/C",[18],56.9%
same,"viability, T/C",[19],105%
same,"viability, T/C",[20],99.9%
same,"viability, T/C",[21],97.9%
same,"viability, T/C",[22],108%
same,"viability, T/C",[23],83.8%
same,"viability, T/C",[24],64.4%
same,"viability, T/C",[25],102%
same,"viability, T/C",[26],106%
same,"viability, T/C",[27],116%
same,"viability, T/C",[28],94.1%
same,"viability, T/C",[29],82.6%
same,"viability, T/C",[30],42.9%
same,"viability, T/C",[31],97.2%
same,"viability, T/C",[32],101%
same,"viability, T/C",[33],110%
same,"viability, T/C",[34],82.1%
same,"viability, T/C",[35],60.8%
same,"viability, T/C",[36],42.4%
CC(=O)O[C@H]1C(=O)[C@@]2(C)[C@H]([C@H](OC(=O)c3ccccc3)[C@]3(O)C[C@H](OC(=O)[C@H](O)[C@@H](NC(=O)c4ccccc4)c4ccccc4)C(C)=C1C3(C)C)[C@]1(OC(C)=O)CO[C@@H]1C[C@@H]2O + Cc1[nH]c2ccc(F)cc2c1-c1nc2c3cccnc3c3ncccc3c2[nH]1,IC50,second compound 0.0316 µM,< 31.6 nM
same,IC50,second compound 0.1 µM,< 31.6 nM
same,IC50,second compound 0.316 µM,< 31.6 nM
same,IC50,second compound 1 µM,< 31.6 nM
same,IC50,second compound 3.16 µM,< 31.6 nM
same,IC50,second compound 10 µM,< 31.6 nM
same,"viability, T/C",[1],25.5%
same,"viability, T/C",[2],21.1%
same,"viability, T/C",[3],16.1%
same,"viability, T/C",[4],14.5%
same,"viability, T/C",[5],13.6%
same,"viability, T/C",[6],12.9%
same,"viability, T/C",[7],31.7%
same,"viability, T/C",[8],15.6%
same,"viability, T/C",[9],15.4%
same,"viability, T/C",[10],12.1%
same,"viability, T/C",[11],11.7%
same,"viability, T/C",[12],13.8%
same,"viability, T/C",[13],22.9%
same,"viability, T/C",[14],18.9%
same,"viability, T/C",[15],15.5%
same,"viability, T/C",[16],11.6%
same,"viability, T/C",[17],13.1%
same,"viability, T/C",[18],11.6%
same,"viability, T/C",[19],19.6%
same,"viability, T/C",[20],12.4%
same,"viability, T/C",[21],12.8%
same,"viability, T/C",[22],11.8%
same,"viability, T/C",[23],13.2%
same,"viability, T/C",[24],14.7%
same,"viability, T/C",[25],14.9%
same,"viability, T/C",[26],14.7%
same,"viability, T/C",[27],15.1%
same,"viability, T/C",[28],10.2%
same,"viability, T/C",[29],10.8%
same,"viability, T/C",[30],11.1%
same,"viability, T/C",[31],16%
same,"viability, T/C",[32],12.5%
same,"viability, T/C",[33],14.9%
same,"viability, T/C",[34],11.5%
same,"viability, T/C",[35],10.1%
same,"viability, T/C",[36],10.8%
COc1cc(C2c3cc4c(cc3C(OC3OC5COC(C)OC5C(O)C3O)C3COC(=O)C23)OCO4)cc(OC)c1O (stereo not given) + Cc1[nH]c2ccc(F)cc2c1-c1nc2c3cccnc3c3ncccc3c2[nH]1,IC50,second compound 0.0316 µM,669 nM
same,IC50,second compound 0.1 µM,1050 nM
same,IC50,second compound 0.316 µM,889 nM
same,IC50,second compound 1 µM,584 nM
same,IC50,second compound 3.16 µM,541 nM
same,IC50,second compound 10 µM,720 nM
same,"viability, T/C",[1],113%
same,"viability, T/C",[2],97.5%
same,"viability, T/C",[3],64.9%
same,"viability, T/C",[4],41.6%
same,"viability, T/C",[5],32.4%
same,"viability, T/C",[6],25.4%
same,"viability, T/C",[7],105%
same,"viability, T/C",[8],101%
same,"viability, T/C",[9],67.1%
same,"viability, T/C",[10],54.4%
same,"viability, T/C",[11],36.2%
same,"viability, T/C",[12],28.4%
same,"viability, T/C",[13],84.6%
same,"viability, T/C",[14],104%
same,"viability, T/C",[15],75.7%
same,"viability, T/C",[16],47%
same,"viability, T/C",[17],31.9%
same,"viability, T/C",[18],22.5%
same,"viability, T/C",[19],95.9%
same,"viability, T/C",[20],97.9%
same,"viability, T/C",[21],65.5%
same,"viability, T/C",[22],37.5%
same,"viability, T/C",[23],41.9%
same,"viability, T/C",[24],25.4%
same,"viability, T/C",[25],86.2%
same,"viability, T/C",[26],96.2%
same,"viability, T/C",[27],63.2%
same,"viability, T/C",[28],36.5%
same,"viability, T/C",[29],40.4%
same,"viability, T/C",[30],27.7%
same,"viability, T/C",[31],93.8%
same,"viability, T/C",[32],87.3%
same,"viability, T/C",[33],67.9%
same,"viability, T/C",[34],40.8%
same,"viability, T/C",[35],34.3%
same,"viability, T/C",[36],23%
COc1cccc2c1C(=O)c1c(O)c3c(c(O)c1C2=O)CC(O)(C(=O)CO)CC3OC1CC(N)C(O)C(C)O1 (stereo not given) + Cc1[nH]c2ccc(F)cc2c1-c1nc2c3cccnc3c3ncccc3c2[nH]1,IC50,second compound 0.0316 µM,771 nM
same,IC50,second compound 0.1 µM,504 nM
same,IC50,second compound 0.316 µM,554 nM
same,IC50,second compound 1 µM,937 nM
same,IC50,second compound 3.16 µM,506 nM
same,IC50,second compound 10 µM,623 nM
same,"viability, T/C",[1],108%
same,"viability, T/C",[2],88.2%
same,"viability, T/C",[3],58.6%
same,"viability, T/C",[4],39.3%
same,"viability, T/C",[5],38.8%
same,"viability, T/C",[6],2.47%
same,"viability, T/C",[7],96.8%
same,"viability, T/C",[8],92.8%
same,"viability, T/C",[9],46.3%
same,"viability, T/C",[10],41.5%
same,"viability, T/C",[11],21.6%
same,"viability, T/C",[12],4%
same,"viability, T/C",[13],105%
same,"viability, T/C",[14],75.5%
same,"viability, T/C",[15],53.7%
same,"viability, T/C",[16],49%
same,"viability, T/C",[17],18.7%
same,"viability, T/C",[18],2.01%
same,"viability, T/C",[19],91.7%
same,"viability, T/C",[20],91.2%
same,"viability, T/C",[21],71.6%
same,"viability, T/C",[22],44.5%
same,"viability, T/C",[23],27.6%
same,"viability, T/C",[24],2.3%
same,"viability, T/C",[25],89.2%
same,"viability, T/C",[26],84.6%
same,"viability, T/C",[27],50%
same,"viability, T/C",[28],39%
same,"viability, T/C",[29],23.4%
same,"viability, T/C",[30],1.17%
same,"viability, T/C",[31],103%
same,"viability, T/C",[32],76.2%
same,"viability, T/C",[33],55.6%
same,"viability, T/C",[34],54.8%
same,"viability, T/C",[35],20.1%
same,"viability, T/C",[36],1.64%
Nc1ccn(C2OC(CO)C(O)C2(F)F)c(=O)n1 (stereo not given) + Cc1[nH]c2ccc(F)cc2c1-c1nc2c3cccnc3c3ncccc3c2[nH]1,IC50,second compound 0.0316 µM,< 31.6 nM
same,IC50,second compound 0.1 µM,33.6 nM
same,IC50,second compound 0.316 µM,< 31.6 nM
same,IC50,second compound 1 µM,< 31.6 nM
same,IC50,second compound 3.16 µM,< 31.6 nM
same,IC50,second compound 10 µM,< 31.6 nM
same,"viability, T/C",[1],39%
same,"viability, T/C",[2],26.1%
same,"viability, T/C",[3],19.7%
same,"viability, T/C",[4],13.7%
same,"viability, T/C",[5],14%
same,"viability, T/C",[6],16.1%
same,"viability, T/C",[7],51.6%
same,"viability, T/C",[8],20.2%
same,"viability, T/C",[9],13.4%
same,"viability, T/C",[10],12.9%
same,"viability, T/C",[11],16.2%
same,"viability, T/C",[12],17.1%
same,"viability, T/C",[13],43.9%
same,"viability, T/C",[14],23.8%
same,"viability, T/C",[15],14.6%
same,"viability, T/C",[16],13.9%
same,"viability, T/C",[17],16%
same,"viability, T/C",[18],13.6%
same,"viability, T/C",[19],39.2%
same,"viability, T/C",[20],31.1%
same,"viability, T/C",[21],14.8%
same,"viability, T/C",[22],11.8%
same,"viability, T/C",[23],13.4%
same,"viability, T/C",[24],13.8%
same,"viability, T/C",[25],29.9%
same,"viability, T/C",[26],22%
same,"viability, T/C",[27],18.2%
same,"viability, T/C",[28],13.8%
same,"viability, T/C",[29],11%
same,"viability, T/C",[30],14.6%
same,"viability, T/C",[31],38.7%
same,"viability, T/C",[32],17.2%
same,"viability, T/C",[33],12.4%
same,"viability, T/C",[34],14%
same,"viability, T/C",[35],13.8%
same,"viability, T/C",[36],13.8%
